Measured values: article PMC6694155, “PTPσ inhibitors promote hematopoietic stem cell regeneration” (Nature Communications, 2019)
Several values for one entry are separate records, joined by “and”; a condition that tells them apart may be missing. Equal entries are not always repeated.

Experiments:
PTPσ = molecular target: T1, PTPσ (Mus musculus, UniProt B0V2N1); test: Substrate titration of PTPσ (Km, Vmax, mechanism of inhibition); assay type: biochemical
T1 sequence (B0V2N1 1326-1907): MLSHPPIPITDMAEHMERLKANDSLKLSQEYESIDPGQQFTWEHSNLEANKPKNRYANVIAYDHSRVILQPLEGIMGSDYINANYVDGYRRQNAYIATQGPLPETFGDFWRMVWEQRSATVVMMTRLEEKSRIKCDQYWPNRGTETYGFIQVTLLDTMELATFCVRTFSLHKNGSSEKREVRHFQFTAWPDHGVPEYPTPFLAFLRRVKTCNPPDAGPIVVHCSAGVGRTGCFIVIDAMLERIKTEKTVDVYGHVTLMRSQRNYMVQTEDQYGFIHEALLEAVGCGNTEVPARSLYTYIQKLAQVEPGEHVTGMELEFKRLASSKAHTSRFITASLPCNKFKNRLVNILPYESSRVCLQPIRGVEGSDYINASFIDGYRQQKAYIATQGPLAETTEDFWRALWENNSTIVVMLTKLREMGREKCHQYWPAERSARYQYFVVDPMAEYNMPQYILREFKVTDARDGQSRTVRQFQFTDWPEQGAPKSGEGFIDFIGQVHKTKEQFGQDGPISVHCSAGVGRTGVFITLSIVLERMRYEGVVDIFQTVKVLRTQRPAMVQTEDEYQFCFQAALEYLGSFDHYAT
Description: The two intracellular catalytic domains (D1 and D2) of Ptprs were cloned into a pET28a vector, overexpressed in Escherichia coli BL21 and purified. Enzymatic activity of PTPσ was assayed using a modified version of the Malachite Green Assay[66] and the Tyrosine Phosphatase Assay Kit (Promega Corporation). Unless stated otherwise, standard assays were carried out using 50 nM PTPσ protein in 1× Buffer (10 mM Tris, 5 mM MgCl2, 10 mM NaCl, 0.02% Tween) and Tyr Phosphopeptide as substrate (200 μM for Fig. 1b, c, 50–1200 μM in Fig. 1c). Purified catalytic domain 1 and domain 2 of PTPσ were pre-incubated with test compounds 3071, 5205, 5075, or control for 15 min in a 96-well plate before the addition of Tyr Phosphopeptide (DADE(pY)LIPQQG). For IC50 determination, rates normalized relative to uninhibited controls (dimethyl sulfoxide (DMSO)) were plotted against compound concentration and fitted using a four-parameter nonlinear regression curve fit ((y = [(A − D) (1 + {xC − 1}B) − 1] + D) (Prism 6.0, Graphpad Software). For mechanism studies and determination of the enyzme’s Km and Vmax, data were analyzed using a nonlinear regression fit according to the classical Michaelis–Menten kinetics model, Y = Vmax*X/(Km + X) (Prism 6.0, Graphpad Software).

[1] = Pharmacokinetic study for DJ001; assay type: in vivo, mouse; details: for concentration of DJ001 in the peripheral blood: 5 mg/kg single subcutaneous dose
Description: PK studies for DJ001 were performed at Cyprotex (Study Number CYP1426-R1) under non-good laboratory practice conditions. Mice were subcutaneously injected with a single dose of 5 mg/kg DJ001 (in 10% DMSO, 40% phosphate-buffered saline (PBS), 50% polyethylene glycol and plasma samples were collected at 0.08, 0.25, 0.5, 1, 2, 4, 8, and 24 h. Samples were crashed with three volumes of methanol and analytical internal standard (propranolol). Supernatant was subjected to liquid chromatography-mass spectrometry/mass spectrometry (MS/MS) using an acetonitrile-water gradient system and electrospray ionization in multiple reaction monitoring mode for MS detection. All plasma samples were compared with an internal calibration curve prepared in mouse blank plasma.

Protein Phosphatase 5 = molecular target: T2, Protein Phosphatase 5 (Homo sapiens, UniProt P53041); test: PhosphataseProfiler screen: PP5; assay type: biochemical; details: for Supplementary Figure 1: PP5 activity: replicates
T2 construct: purchased Eurofins Pharma Discovery Services UK
T2 sequence (P53041 1-499): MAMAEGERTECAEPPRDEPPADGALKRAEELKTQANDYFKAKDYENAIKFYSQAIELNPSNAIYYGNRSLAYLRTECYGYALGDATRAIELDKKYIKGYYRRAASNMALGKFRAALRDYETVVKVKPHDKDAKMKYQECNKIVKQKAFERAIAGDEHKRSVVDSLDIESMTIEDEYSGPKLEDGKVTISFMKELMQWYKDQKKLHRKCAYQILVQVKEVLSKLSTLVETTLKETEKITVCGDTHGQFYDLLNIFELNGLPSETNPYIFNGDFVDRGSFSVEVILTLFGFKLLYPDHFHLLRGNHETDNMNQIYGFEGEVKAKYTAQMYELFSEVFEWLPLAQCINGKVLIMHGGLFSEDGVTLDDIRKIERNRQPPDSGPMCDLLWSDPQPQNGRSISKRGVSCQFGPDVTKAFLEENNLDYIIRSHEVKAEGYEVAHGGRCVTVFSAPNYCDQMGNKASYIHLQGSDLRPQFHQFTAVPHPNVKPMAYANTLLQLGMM
Description: (§1) Compound DJ001 was evaluated in a PhosphataseProfiler™ screen at 10 μM and 1 μM (2.7 μg/mL and 0.27 μg/mL) concentrations at Eurofins Pharma Discovery Services UK (Study number UK022-0004033) against a panel of 21 Phosphatases. In each experiment, the respective reference antagonist/agonist was tested directly with DJ001 and the data were compared with historical values determined at Eurofins. DJ001 compound inhibition was calculated as percentage inhibition of the enzymatic activity compared with control.

[2] = molecular target: T3, PTPβ (Protein Tyrosine Phosphatase Receptor beta) (Homo sapiens, UniProt P23467); test: PhosphataseProfiler screen: PTPβ; assay type: biochemical; details: replicates
T3 construct: purchased Eurofins Pharma Discovery Services UK
T3 sequence (P23467 23-1997): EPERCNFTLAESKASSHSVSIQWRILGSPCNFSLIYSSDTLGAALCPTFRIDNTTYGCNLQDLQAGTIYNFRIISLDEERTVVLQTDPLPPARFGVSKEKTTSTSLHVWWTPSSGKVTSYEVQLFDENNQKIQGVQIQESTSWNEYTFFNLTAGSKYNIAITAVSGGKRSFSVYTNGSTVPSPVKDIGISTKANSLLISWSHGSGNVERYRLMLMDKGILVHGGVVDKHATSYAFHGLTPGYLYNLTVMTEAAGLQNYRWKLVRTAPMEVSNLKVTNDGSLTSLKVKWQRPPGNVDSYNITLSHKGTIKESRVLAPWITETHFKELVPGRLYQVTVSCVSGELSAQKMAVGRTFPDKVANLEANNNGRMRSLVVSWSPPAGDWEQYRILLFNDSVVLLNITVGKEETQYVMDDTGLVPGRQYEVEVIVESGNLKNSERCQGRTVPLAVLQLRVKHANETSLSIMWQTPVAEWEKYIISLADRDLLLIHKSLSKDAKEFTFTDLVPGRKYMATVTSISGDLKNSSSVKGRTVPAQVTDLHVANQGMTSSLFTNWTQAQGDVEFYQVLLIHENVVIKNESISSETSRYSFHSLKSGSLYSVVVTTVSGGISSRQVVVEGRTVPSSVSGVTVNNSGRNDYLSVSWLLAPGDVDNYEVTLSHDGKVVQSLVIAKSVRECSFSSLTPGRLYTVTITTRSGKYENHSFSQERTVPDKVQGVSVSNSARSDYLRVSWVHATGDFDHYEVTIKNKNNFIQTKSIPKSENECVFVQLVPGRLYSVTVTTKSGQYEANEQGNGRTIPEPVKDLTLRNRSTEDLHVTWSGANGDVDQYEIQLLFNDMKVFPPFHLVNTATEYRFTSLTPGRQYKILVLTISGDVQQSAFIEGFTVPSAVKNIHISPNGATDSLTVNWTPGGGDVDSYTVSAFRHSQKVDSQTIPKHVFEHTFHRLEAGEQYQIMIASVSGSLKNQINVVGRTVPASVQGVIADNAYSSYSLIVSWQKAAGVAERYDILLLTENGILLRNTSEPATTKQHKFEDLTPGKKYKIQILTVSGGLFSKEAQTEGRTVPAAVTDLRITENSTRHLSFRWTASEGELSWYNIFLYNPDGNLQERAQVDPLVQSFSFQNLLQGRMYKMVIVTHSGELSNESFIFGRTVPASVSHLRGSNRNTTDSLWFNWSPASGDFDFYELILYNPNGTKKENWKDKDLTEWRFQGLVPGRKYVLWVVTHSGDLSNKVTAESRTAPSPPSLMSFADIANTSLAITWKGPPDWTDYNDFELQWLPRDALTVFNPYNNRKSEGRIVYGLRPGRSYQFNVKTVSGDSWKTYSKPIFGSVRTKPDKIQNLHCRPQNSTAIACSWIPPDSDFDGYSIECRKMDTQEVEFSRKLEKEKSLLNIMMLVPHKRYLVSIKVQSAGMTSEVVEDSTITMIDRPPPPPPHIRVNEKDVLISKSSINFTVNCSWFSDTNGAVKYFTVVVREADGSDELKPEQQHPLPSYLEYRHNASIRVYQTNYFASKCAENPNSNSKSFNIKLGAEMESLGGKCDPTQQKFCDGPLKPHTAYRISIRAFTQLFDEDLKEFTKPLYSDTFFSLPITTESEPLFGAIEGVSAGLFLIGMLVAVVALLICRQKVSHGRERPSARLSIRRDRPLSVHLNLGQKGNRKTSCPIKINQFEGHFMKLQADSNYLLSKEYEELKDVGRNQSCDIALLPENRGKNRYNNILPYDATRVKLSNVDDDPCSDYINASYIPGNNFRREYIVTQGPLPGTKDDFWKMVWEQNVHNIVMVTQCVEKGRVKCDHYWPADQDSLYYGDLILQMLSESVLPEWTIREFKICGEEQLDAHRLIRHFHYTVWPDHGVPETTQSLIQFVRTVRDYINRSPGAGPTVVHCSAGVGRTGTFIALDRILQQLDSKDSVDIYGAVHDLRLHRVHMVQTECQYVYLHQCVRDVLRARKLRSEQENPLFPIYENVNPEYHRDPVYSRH
Description: as §1

O=C(/C=C\Nc1cccc([N+](=O)[O-])c1)c1ccccc1 [DJ001, (Z)-3-((3-nitrophenyl)amino)-1-phenylprop-2-en-1-one]
substrate titration source data, rate per replicate (PTPσ; 25M DJ001, Substrate 50 uM): 9
substrate titration source data, rate per replicate (PTPσ; 25M DJ001, Substrate 50 uM, 25 µM DJ001): 12.3
substrate titration source data, rate per replicate (PTPσ; 25M DJ001, Substrate 100 uM): 13.4
substrate titration source data, rate per replicate (PTPσ; 25M DJ001, Substrate 100 uM, 25 µM DJ001): 16.2
substrate titration source data, rate per replicate (PTPσ; 25M DJ001, Substrate 200 uM): 26.7
substrate titration source data, rate per replicate (PTPσ; 25M DJ001, Substrate 200 uM, 25 µM DJ001): 26
substrate titration source data, rate per replicate (PTPσ; 25M DJ001, Substrate 400 uM): 42.9
substrate titration source data, rate per replicate (PTPσ; 25M DJ001, Substrate 400 uM, 25 µM DJ001): 40.9
substrate titration source data, rate per replicate (PTPσ; 25M DJ001, Substrate 800 uM): 54.8
substrate titration source data, rate per replicate (PTPσ; 25M DJ001, Substrate 800 uM, 25 µM DJ001): 50.4
substrate titration source data, rate per replicate (PTPσ; 25M DJ001, Substrate 1200 uM): 57.8
substrate titration source data, rate per replicate (PTPσ; 25M DJ001, Substrate 1200 uM, 25 µM DJ001): 55.4
substrate titration source data, rate per replicate (PTPσ; 50M DJ001, Substrate 50 uM, 50 µM DJ001): 7.7 and 8
substrate titration source data, rate per replicate (PTPσ; 50M DJ001, Substrate 100 uM, 50 µM DJ001): 9.1 and 9.9
substrate titration source data, rate per replicate (PTPσ; 50M DJ001, Substrate 200 uM, 50 µM DJ001): 14.1 and 15.3
substrate titration source data, rate per replicate (PTPσ; 50M DJ001, Substrate 400 uM, 50 µM DJ001): 23.2 and 23.4
substrate titration source data, rate per replicate (PTPσ; 50M DJ001, Substrate 800 uM, 50 µM DJ001): 28.7 and 27
substrate titration source data, rate per replicate (PTPσ; 50M DJ001, Substrate 1200 uM, 50 µM DJ001): 34.7 and 35
substrate titration source data, rate per replicate (PTPσ; 100M DJ001, Substrate 50 uM): 7.7 and 7.4
substrate titration source data, rate per replicate (PTPσ; 100M DJ001, Substrate 100 uM): 7.7
substrate titration source data, rate per replicate (PTPσ; 100M DJ001, Substrate 200 uM): 8.9
substrate titration source data, rate per replicate (PTPσ; 100M DJ001, Substrate 400 uM): 13.4 and 13.9
substrate titration source data, rate per replicate (PTPσ; 100M DJ001, Substrate 800 uM): 17.3 and 16.7
substrate titration source data, rate per replicate (PTPσ; 100M DJ001, Substrate 1200 uM): 25.5 and 23.8
mechanism of PTPσ inhibition (PTPσ; substrate titration, inhibits Vmax, constant Km): non-competitive inhibitor
concentration of DJ001 in the peripheral blood ([1]; through + 24 hours following administration): approximately 10 ng/ml
concentration of DJ001 in the peripheral blood ([1]; within 1 hour after administration): 100 ng/mL
DJ001 concentrations in the PB ([1]; 5 mg/kg subcutaneously × 1, over several hours post injection): 10 to 100 ng/mL
Supplementary Figure 4f: Concentration ([1]; 0.08 Hours, individual mice): 170 ng/mL and 54.7 ng/mL and 61.1 ng/mL
Supplementary Figure 4f: Concentration ([1]; 0.25 Hours, individual mice): 159 ng/mL and 93.5 ng/mL
Supplementary Figure 4f: Concentration ([1]; 0.5 Hours, individual mice): 113 ng/mL and 133 ng/mL and 60.5 ng/mL
Supplementary Figure 4f: Concentration ([1]; 1 Hours, individual mice): 40.5 ng/mL and 40.7 ng/mL
Supplementary Figure 4f: Concentration ([1]; 2 Hours, individual mice): 35.3 ng/mL and 19.5 ng/mL
Supplementary Figure 4f: Concentration ([1]; 4 Hours, individual mice): 5.8 ng/mL and 6.7 ng/mL
Supplementary Figure 4f: Concentration ([1]; 8 Hours, individual mice): 1.7 ng/mL and 7.8 ng/mL and 12.4 ng/mL
Supplementary Figure 4f: Concentration ([1]; 24 Hours, individual mice): 2.8 ng/mL and 2.3 ng/mL and 8.9 ng/mL
concentration at 0.25 h ([1]; C57BL/6, mouse, plasma, subcutaneous, 5 mg/kg, 0.25 Hours, individual mice, read-out: Supplementary Figure 4f: Concentration): 113 ng/mL
concentration at 1 h ([1]; C57BL/6, mouse, plasma, subcutaneous, 5 mg/kg, 1 Hours, individual mice, read-out: Supplementary Figure 4f: Concentration): 79.5 ng/mL
concentration at 2 h ([1]; C57BL/6, mouse, plasma, subcutaneous, 5 mg/kg, 2 Hours, individual mice, read-out: Supplementary Figure 4f: Concentration): 32.9 ng/mL
concentration at 4 h ([1]; C57BL/6, mouse, plasma, subcutaneous, 5 mg/kg, 4 Hours, individual mice, read-out: Supplementary Figure 4f: Concentration): 6.5 ng/mL
Supplementary Figure 1: PP5 activity (Protein Phosphatase 5; 2.7 μg/mL DJ001): 58 and 54 and 60
Supplementary Figure 1: PP5 activity (Protein Phosphatase 5; 0.27 g/mL DJ001): 78 and 80 and 75
inhibitory activity against Protein Phosphatase 5 (Protein Phosphatase 5; DJ001 at 10 μM and 1 μM): only modest inhibitory activity
Supplementary Figure 1: PTP activity ([2]; 2.7 μg/mL DJ001): 92 and 79 and 96
Supplementary Figure 1: PTP activity ([2]; 0.27 g/mL DJ001): 98 and 91 and 84
